Source: patent US10183944B2 (Asana Biosciences, LLC, priority 2011, dated 2019)

biological target: Syk (356-635 amino acids) catalytic domain (Homo sapiens (Human), UniProt P43405); test: Inhibition of enzymatic Syk kinase activity (radiometric); format: biochemical; conditions: read-out: IC50 Syk
From the text: The objective of this assay was to examine by radiometric method the ability of compounds to inhibit Syk kinase enzyme. Syk is capable of phosphorylating substrates such as VAV, LAT, SLP-76, which in turn activate MAPK, PLCγ signaling pathways. […] This in vitro assay tests the ability of syk to phosphorylate a substrate peptide in the presence of ATP. By using a radio-labeled form of ATP, it is possible to measure the amount of phosphorylation of the substrate. The enzyme transfers a radio-labeled phosphate group from γ32 P labeled ATP to pG4T. Briefly the enzyme was incubated with substrate, radio-labeled & cold ATP and substrate in buffer with or without compounds. At the end of the reaction, the reaction mixture was transferred on to a Multiscreen filter plate and unreacted γ^32P ATP was washed off. The filter plate was dried and the radioactivity was measured on a scintillation counter to estimate the incorporated radioactivity on the substrate. The percent inhibition of activity of the enzyme was calculated by comparing counts in the presence and absence of compounds. […] 2.5 μL of 10% DMSO or compound in 10% DMSO was added to the wells in a 96 well V-bottom plate. Optimized concentration of in-house Syk enzyme (different batches of Syk (356-635) kinase domain) were used at optimized concentrations) ranging from 0.035 ng to 7.5 ng/reaction diluted in assay buffer was added to a total volume of 12.5 μL). Compound and protein were incubated for 30 minutes at room temperature on a plate shaker. Ten μL of a substrate mix containing 100 μM ATP (0.25 μL), γ-P^32-ATP (0.1 μL; 10 μCi/μL), pG4T (0.25 μL; 10 mg/mL) and 1× assay buffer (9.4 μL) was added to all the wells. Samples were incubated at 30° C. for 10 minutes after mixing. The reaction was stopped by the addition of 8N HCl (13 μL) containing 100 mM ATP. Thirty μL of sample was transferred to the center of a 2×2 cm^2 Whatman® P81 chromatography paper. After allowing the sample to dry for one minute, the assay squares were washed 3 times for 5 minutes each in ortho-phosphoric acid (0.5%) and once in acetone. Assay squares were dried for 15 minutes in a 30° C. oven and transferred to 96 well optiplate. Microscint-O® reagent (100 μL, Perkin Elmer) was added to each well, the plate was sealed with Topseal®-A microplates and incubated for 10 minutes at room temperature at very low speed on rocker and the plate was read in the Topcount® NXL instrument. The following calculations were made: Fold induction=radioactivity counts (uncorrected values) in positive control/substrate control.

IC50	Structure (SMILES)
< 10 nM	N#CCC1CCN(c2nc(Nc3ccc(N4CCN(CCN)CC4)cc3)c3c(=O)[nH]ncc3n2)CC1 [Example 257, 2-(1-(4-((4-(4-(2-aminoethyl)piperazin-1-yl)phenyl)amino)-5-oxo-5,6-dihydropyrimido[4,5-d]pyridazin-2-yl)piperidin-4-yl)acetonitrile]
> 100 nM	O=c1[nH]ncc2nc(N3CCCCCC3)nc(Nc3ccc(N4CCC(F)(F)CC4)cc3)c12 [Example 279, 2-(azepan-1-yl)-4-((4-(4,4-difluoropiperidin-1-yl)phenyl)amino) pyrimido[4,5-d]pyridazin-5(6H)-one]
< 100 nM	O=c1[nH]ncc2nc(N3CCCCCC3)nc(Nc3ccc(OCCCO)cc3)c12 [Example 296, 2-(azepan-1-yl)-4-((4-(3-hydroxypropoxy)phenyl)amino)pyrimido[4,5-d]pyridazin-5(6H)-one]
> 100 nM	O=c1[nH]ncc2nc(N3CCCCCC3)nc(Nc3ccc(N4CCC(CCF)CC4)cc3)c12 [Example 298, 2-(azepan-1-yl)-4-((4-(4-(2-fluoroethyl)piperidin-1-yl)phenyl)amino) pyrimido[4,5-d]pyridazin-5-(6H)-one]
> 100 nM	COc1cc(Nc2nc(N3CCC(CC#N)CC3)nc3cn[nH]c(=O)c23)cc(OC)c1 [Example 300, 2-(1-(4-((3,5-dimethoxyphenyl)amino)-5-oxo-5,6-dihydropyrimido[4,5-d]pyridazin-2-yl)piperidin-4-yl)acetonitrile]
> 100 nM	N#CCC1CCN(c2nc(Nc3ccc(OC(F)(F)F)cc3)c3c(=O)[nH]ncc3n2)CC1 [Example 301, 2-(1-(5-oxo-4-((4-(trifluoromethoxy)phenyl)amino)-5,6-dihydropyrimido[4,5-d]pyridazin-2-yl)piperidin-4-yl) acetonitrile]
> 100 nM	O=c1[nH]ncc2nc(N3CCCCCC3)nc(Nc3ccc(OC(F)(F)F)cc3)c12 [Example 303, 2-(azepan-1-yl)-4-((4-(trifluoromethoxy)phenyl)amino)pyrimido[4,5-d]pyridazin-5(6H)-one]
> 100 nM	O=c1[nH]ncc2nc(N3CCCCCC3)nc(Nc3cccc(CO)c3)c12 [Example 310, 2-(azepan-1-yl)-4-((3-(hydroxymethyl)phenyl)amino)pyrimido[4,5-d]pyridazin-5(6H)-one]
> 100 nM	N#CCC1CCN(c2nc(Nc3cccc(CO)c3)c3c(=O)[nH]ncc3n2)CC1 [Example 311, 2-(1-(4-((3-(hydroxymethyl)phenyl)amino)-5-oxo-5,6-dihydropyrimido[4,5-d]pyridazin-2-yl)piperidin-4-yl) acetonitrile]
> 100 nM	O=c1[nH]ncc2nc(N3CCCCCC3)nc(Nc3ccc(F)cc3)c12 [Example 313, 2-(azepan-1-yl)-4-((4-fluorophenyl)amino)pyrimido[4,5-d]pyridazin-5(6H)-one]
> 100 nM	CC(C)(Oc1ccc(Nc2nc(N3CCC(CC#N)CC3)nc3cn[nH]c(=O)c23)cc1)C(=O)O [Example 317, 2-(4-((2-(4-(cyanomethyl)piperidin-1-yl)-5-oxo-5,6-dihydropyrimido[4,5-d]pyridazin-4-yl)amino)phenoxy)-2-methylpropanoic acid]
> 100 nM	COc1ccc(Nc2nc(N3CCCCCC3)nc3cn[nH]c(=O)c23)cc1OC [Example 318, 2-(azepan-1-yl)-4-((3,4-dimethoxyphenyl)amino)pyrimido[4,5-d]pyridazin-5(6H)-one]

Continued, molecule first:

Structure (SMILES)	IC50
CC(C)(C#N)N1CCN(c2ccc(Nc3nc(N4CCCCCC4)nc4cn[nH]c(=O)c34)cc2)CC1 [Example 111, 2-(4-(4-((2-(azepan-1-yl)-5-oxo-5,6-dihydropyrimido[4,5-d]pyridazin-4-yl)amino)phenyl)piperazin-1-yl)-2-methylpropanenitrile]	< 50 nM
CC(C)(C#N)C1CCN(c2ccc(Nc3nc(-c4ccccc4)nc4cn[nH]c(=O)c34)cc2)CC1 [Example 119, 2-methyl-2-(1-(4-((5-oxo-2-phenyl-5,6-dihydropyrimido[4,5-d]pyridazin-4-yl)amino)phenyl)piperidin-4-yl) propanenitrile]	> 100 nM
O=c1[nH]ncc2nc(-c3ccccc3)nc(Nc3ccc(OC[C@@H]4CO[C@@H](CO)CO4)cc3)c12 [Example 122, 4-((4-(((2S,5S)-5-(hydroxymethyl)-1,4-dioxan-2-yl)methoxy)phenyl)amino)-2-phenylpyrimido[4,5-d]pyridazin-5(6H)-one]	> 100 nM
O=C(O)C1CC12CCN(c1ccc(Nc3nc(-c4ccccc4)nc4cn[nH]c(=O)c34)cn1)CC2 (stereo not shown) [Example 137, 6-(5-((5-oxo-2-phenyl-5,6-dihydropyrimido[4,5-d]pyridazin-4-yl)amino)pyridin-2-yl)-6-azaspiro[2.5]octane-1-carboxylic acid]	> 100 nM
O=C(O)C1CC12CCN(c1ccc(Nc3nc(-c4ccncc4)nc4cn[nH]c(=O)c34)cc1)CC2 (stereo not shown) [Example 138, 6-(4-((5-oxo-2-(pyridin-4-yl)-5,6-dihydropyrimido[4,5-d]pyridazin-4-yl)amino)phenyl)-6-azaspiro[2.5]octane-1-carboxylic acid]	> 100 nM
N#CC1CCN(c2nc(Nc3ccc(OCCN4CCNCC4)cc3)c3c(=O)[nH]ncc3n2)CC1 [Example 149, 1-(5-oxo-4-((4-(2-(piperazin-1-yl)ethoxy)phenyl)amino)-5,6-dihydropyrimido[4,5-d]pyridazin-2-yl)piperidine-4-carbonitrile]	> 100 nM
COc1cccc(-c2nc(Nc3ccc(N4CCC(CC#N)CC4)cc3)c3c(=O)[nH]ncc3n2)c1 [Example 163, 2-(1-(4-((2-(3-methoxyphenyl)-5-oxo-5,6-dihydropyrimido[4,5-d]pyridazin-4-yl)amino)phenyl)piperidin-4-yl)acetonitrile]	> 100 nM
O=c1[nH]ncc2nc(N3CCOCC3)nc(Nc3ccc(OCCN4CCNCC4)cc3)c12 [Example 176, 2-morpholino-4-((4-(2-(piperazin-1-yl)ethoxy)phenyl)amino)pyrimido[4,5-d]pyridazin-5(6H)-one]	> 100 nM
CC1CN(c2nc(Nc3ccc(OCCN4CCNCC4)cc3)c3c(=O)[nH]ncc3n2)CC(C)O1 (stereo not shown) [Example 177, 2-(2,6-dimethylmorpholino)-4-((4-(2-(piperazin-1-yl)ethoxy)phenyl)amino) pyrimido[4,5-d]pyridazin-5(6H)-one]	> 100 nM
O=c1[nH]ncc2nc(N3CCCCCC3)nc(Nc3ccc(N4CCC(CCCO)CC4)cc3)c12 [Example 194, 2-(azepan-1-yl)-4-((4-(4-(3-hydroxypropyl)piperidin-1-yl)phenyl)amino)pyrimido[4,5-d]pyridazin-5(6H)-one]	> 100 nM
N#CCC1CCN(CCN2CCC(Nc3nc(N4CCCCCC4)nc4cn[nH]c(=O)c34)CC2)CC1 [Example 204, 2-(1-(2-(4-((2-(azepan-1-yl)-5-oxo-5,6-dihydropyrimido[4,5-d]pyridazin-4-yl)amino)piperidin-1-yl)ethyl)piperidin-4-yl)acetonitrile]	> 100 nM
CCn1nnc(-c2ccc(Nc3nc(N4CCCCCC4)nc4cn[nH]c(=O)c34)cc2)n1 [Example 225, 2-(azepan-1-yl)-4-((4-(2-ethyl-2H-tetrazol-5-yl)phenyl)amino)pyrimido[4,5-d]pyridazin-5(6H)-one]	> 100 nM
CCn1nnc(-c2ccc(Nc3nc(N4CCC(CC#N)CC4)nc4cn[nH]c(=O)c34)cc2)n1 [Example 226, 2-(1-(4-((4-(2-ethyl-2H-tetrazol-5-yl)phenyl)amino)-5-oxo-5,6-dihydropyrimido[4,5-d]pyridazin-2-yl)piperidin-4-yl)acetonitrile]	> 100 nM
N#CCN1CCN(c2nc(Nc3ccc(OCCN4CCNCC4)cc3)c3c(=O)[nH]ncc3n2)CC1 [Example 230, 2-(4-(5-oxo-4-((4-(2-(piperazin-1-yl)ethoxy)phenyl)amino)-5,6-dihydropyrimido[4,5-d]pyridazin-2-yl)piperazin-1-yl)acetonitrile]	> 100 nM
N#CCC1CCN(c2nc(Nc3ccc(-c4nnn(CC(=O)O)n4)cc3)c3c(=O)[nH]ncc3n2)CC1 [Example 241, 2-(5-(4-((2-(4-(cyanomethyl)piperidin-1-yl)-5-oxo-5,6-dihydropyrimido[4,5-d]pyridazin-4-yl)amino)phenyl)-2H-tetrazol-2-yl)acetic acid]	> 100 nM
O=c1[nH]ncc2nc(N3CCCCCC3)nc(Nc3ccc(N4CCC5(CC4)CC5CO)cc3)c12 (stereo not shown) [Example 258, 2-(azepan-1-yl)-4-((4-(1-(hydroxymethyl)-6-azaspiro[2.5]octan-6-yl)phenyl)amino) pyrimido[4,5-d]pyridazin-5(6H)-one]	< 100 nM
